Experimental data reported in patent publication US12378190B2, “Two-component coating system” (COVESTRO (NETHERLANDS) B.V., priority 2020, dated 2025).

How the values were obtained:
[1] = tested on: Bscl2-GFP and Rtkn-GFP mES reporter cell lines; assay: ToxTracker genotoxicity assay, overall conclusion; settings: positive: >=2-fold induction; weakly positive: >1.5 and <2-fold; negative: <=[…] at 10, 25 and 50% cytotoxicity, with and without S9
Description: A 2 L four-necked flask equipped with a thermometer and overhead stirrer was charged with sodium lauryl sulphate (30% solids in water, 18.6 grams of solution) and demineralized water (711 grams). The reactor phase was placed under N2 atmosphere and heated to 82° C. A mixture of demineralized water (112 grams), sodium lauryl sulphate (30% solids in water, 37.2 grams of solution), methyl methacrylate (209.3 grams), n-butyl acrylate (453.56 grams) and methacrylic acid (34.88 grams) was placed in a large feeding funnel and emulsified with an overhead stirrer (monomer feed). Ammonium persulphate (1.75 grams) was dissolved in demineralized water (89.61 grams) and placed in a small feeding funnel (initiator feed). Ammonium persulphate (1.75 grams) was dissolved in demineralized water (10.5 grams), and this solution was added to the reactor phase. Immediately afterwards, 5% by volume of the monomer feed was added to the reactor phase. The reaction mixture then exothermed to 85° C. and was kept at 85° C. for 5 minutes. Then, the residual monomer feed and the initiator feed were fed to the reaction mixture over 90 minutes, maintaining a temperature of 85° C. […] Metabolic was evaluated by addition of S9 liver extract. […] Only GFP expression in intact single cells is determined. […]

[2] = tested on: Rtkn-GFP mouse embryonic stem (mES) reporter cell line; assay: ToxTracker genotoxicity assay, Rtkn-GFP reporter induction
Description: A 2 L four-necked flask equipped with a thermometer and overhead stirrer was charged with sodium lauryl sulphate (30% solids in water, 18.6 grams of solution) and demineralized water (711 grams). The reactor phase was placed under N2 atmosphere and heated to 82° C. A mixture of demineralized water (112 grams), sodium lauryl sulphate (30% solids in water, 37.2 grams of solution), methyl methacrylate (209.3 grams), n-butyl acrylate (453.56 grams) and methacrylic acid (34.88 grams) was placed in a large feeding funnel and emulsified with an overhead stirrer (monomer feed). Ammonium persulphate (1.75 grams) was dissolved in demineralized water (89.61 grams) and placed in a small feeding funnel (initiator feed). Ammonium persulphate (1.75 grams) was dissolved in demineralized water (10.5 grams), and this solution was added to the reactor phase. Immediately afterwards, 5% by volume of the monomer feed was added to the reactor phase. The reaction mixture then exothermed to 85° C. and was kept at 85° C. for 5 minutes. Then, the residual monomer feed and the initiator feed were fed to the reaction mixture over 90 minutes, maintaining a temperature of 85° C. After completion of the feeds, the monomer feed funnel was rinsed with demineralized water (18.9 grams) and reaction temperature maintained at 85° C. for 45 minutes. Subsequently, the mixture was cooled to room temperature and brought to pH=7.2 with ammonia solution (6.25 wt. % in demineralized water), and brought to 40% solids with further demineralized water. […] This methodology uses a two step-approach. […] Metabolic was evaluated by addition of S9 liver extract. […] Only GFP expression in intact single cells is determined. […] Components and Abbreviations Used: Dimethylformamide (CAS No. 68-12-2) was obtained from Acros Organics (a division of Thermo Fisher Scientific). […] IPDI (5-isocyanato-1-(isocyanatomethyl)-1,3,3-trimethylcyclohexane, Desmodur® I, isophorone diisocyanate, CAS No. 4098-71-9) was obtained from Covestro. Polyethylene Glycol Monomethyl Ether (CAS No. 9004-74-4) with a number average molecular weight of 1000 Da was obtained from Tokyo Chemical Industry Co., Ltd. Vestanat® T 1890/100, an isophorone diisocyanate based isocyanurate (CAS No. 67873-91-0) was obtained from Evonik. Desmodur® N3600 was obtained from Covestro. 1-methoxy-2-propanol acetate (propylene glycol methyl ether acetate, CAS No. 108-65-6) was obtained from Shell Chemicals. 1-(2-hydroxyethyl)ethyleneimine) (CAS No. 1072-52-2) was obtained from Tokyo Chemical Industry Co., Ltd. Jeffamine® XTJ-436 (CAS No. 118270-87-4) was obtained from Huntsman Bismuth neodecanoate (CAS No. 34364-26-6) obtained from TIB chemicals AG (Mannheim, Germany). Hydrazine (16% solution in water, CAS No. 302-01-2) was obtained from Honeywell. Dimethylol propionic acid (DMPA, CAS No. 4767-03-7) was obtained from Perstop Polyols. Triethylamine (TEA, CAS No. 121-44-8) was obtained from Arkema 1-propanol (CAS No. 71-23-8) was obtained from Sigma-Aldrich. Tin 2-ethylhexanoate (CAS No. 301-10-0) was obtained from Sigma-Aldrich. Dibutyltindilaurate (CAS No. 77-58-7) was obtained from Sigma-Aldrich. Tegomer® D3403 was obtained from Evonik. Polypropyleneglycol with a number average molecular weight of 1000 Da and with a number average molecular weight of 2000 Da was obtained from BASF. 3-Methyl-1-phenyl-2-phospholene-1-oxide (CAS No. 707-61-9) was obtained from Sigma-Aldrich. 1-Butanol (CAS No. 71-36-3) was obtained from Sigma-Aldrich. Sodium lauryl sulphate (30% solution in water, CAS No. 73296-89-6) was obtained from BASF. Methyl methacrylate (CAS No. 80-62-6) was obtained from Lucite Int. n-Butyl acrylate (CAS No. 141-32-2) was obtained from Dow Chemical. Methacrylic acid (CAS No. 79-41-4) was obtained from Lucite Int. Ammonium persulphate (CAS No. 7727-54-0) was obtained from United Initiators. Ammonia (25% solution in water, CAS No. 1336-21-6) was obtained from Merck

Compound | Genotoxicity test conclusion [1] | Rtkn induction level ([2]; with S9 rat liver extract, 3 h exposure and 24 h recovery, at 10% cytotoxicity) | Rtkn induction level ([2]; with S9 rat liver extract, 3 h exposure and 24 h recovery, at 25% cytotoxicity) | Rtkn induction level ([2]; with S9 rat liver extract, 3 h exposure and 24 h recovery, at 50% cytotoxicity) | Rtkn induction level ([2]; without S9 rat liver extract, 24 h exposure, at 10% cytotoxicity) | Rtkn induction level ([2]; without S9 rat liver extract, 24 h exposure, at 25% cytotoxicity) | Rtkn induction level ([2]; without S9 rat liver extract, 24 h exposure, at 50% cytotoxicity)
O=C(CCN1CC1)OCC(CO)(COC(=O)CCN1CC1)COC(=O)CCN1CC1 [Comparative Example 3, pentaerythritol tris(3-(1-aziridinyl)propionate)] | genotoxic | – | – | – | – | – | –
O=C(NCCCCCCn1c(=O)n(CCCCCCNC(=O)OCCN2CC2)c(=O)n(CCCCCCNC(=O)OCCN2CC2)c1=O)OCCN1CC1 [compound 2] | genotoxic | 2.0 fold | 3.4 fold | 3.0 fold | 1.7 fold | 2.4 fold | 2.8 fold
